According to ChEMBL document CHEMBL5236576, “Discovery of a potent M5 antagonist with improved clearance profile. Part 2: Pyrrolidine amide-based antagonists” (Bioorg Med Chem Lett, 2022):

Target: T1, Muscarinic acetylcholine receptor M5 (Homo sapiens, UniProt P08912)
T1 sequence (P08912 whole entry): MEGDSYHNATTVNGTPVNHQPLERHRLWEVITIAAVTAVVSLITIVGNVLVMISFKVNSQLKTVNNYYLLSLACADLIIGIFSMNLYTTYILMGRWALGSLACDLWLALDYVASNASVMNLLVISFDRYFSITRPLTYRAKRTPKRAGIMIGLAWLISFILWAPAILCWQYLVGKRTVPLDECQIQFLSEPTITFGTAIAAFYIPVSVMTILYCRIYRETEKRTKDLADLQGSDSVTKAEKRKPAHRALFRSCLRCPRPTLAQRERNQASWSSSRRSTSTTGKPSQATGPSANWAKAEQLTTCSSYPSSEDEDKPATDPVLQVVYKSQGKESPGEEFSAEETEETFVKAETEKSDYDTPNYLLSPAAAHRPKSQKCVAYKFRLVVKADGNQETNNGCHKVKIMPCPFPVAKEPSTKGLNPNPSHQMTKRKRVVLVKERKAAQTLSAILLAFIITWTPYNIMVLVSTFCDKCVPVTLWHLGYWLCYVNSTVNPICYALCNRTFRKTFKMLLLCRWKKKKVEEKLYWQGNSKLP
Experiment: Antagonist activity at human muscarinic M5 receptor expressed in CHO cells in the presence of acetylcholine by calcium mobilisation assay
Assay type: cell-based
Conditions: not given

Row | IC50 [nM] | SMILES
1 | > 10000 | Cc1ccc(S(=O)(=O)N2CC[C@@H](C(=O)Nc3ccc4scnc4c3)C2)cn1
2 | 35 | C[C@@H]1CN(S(=O)(=O)c2ccc3c(c2)CCO3)C[C@@H]1C(=O)Nc1ccc2scnc2c1

Target: T2, Muscarinic acetylcholine receptor M5 (Homo sapiens) (UniProt P08912)
T2 sequence (whole entry): T1 sequence (P08912 whole entry)
Experiment: Antagonist activity at human muscarinic M5 receptor expressed in CHO cells assessed as minimal acetylcholine response by calcium mobilisation assay relative to control
Assay type: cell-based
Set-up: concentration or dose not given beside the values
Conditions: filed as antagonist

Row | SMILES | Activity [%]
3 | Cc1nn(C)cc1S(=O)(=O)N1CC[C@@H](C(=O)Nc2ccc3scnc3c2)C1 | 6
4 | O=C(Nc1ccc2scnc2c1)[C@@H]1CCN(S(=O)(=O)c2ccc3ncsc3c2)C1 | 2
5 | O=C(Nc1ccc2scnc2c1)[C@@H]1CCN(S(=O)(=O)c2ccc3c(c2)OCO3)C1 | 3
6 | O=C(Nc1ccc2scnc2c1)[C@@H]1CCN(S(=O)(=O)c2ccc3ncccc3c2)C1 | 3

Next, values leading:

Row | Activity [%] | SMILES
7 | 31 | O=C(Nc1ccc2scnc2c1)[C@@H]1CCN(S(=O)(=O)c2ccc3c(c2)CCC3)C1
8 | 41 | Cc1ccc(S(=O)(=O)N2CC[C@@H](C(=O)Nc3ccc4scnc4c3)C2)cn1
9 | 2 | O=C(Nc1ccc2scnc2c1)C1CN(S(=O)(=O)c2ccc3c(c2)CCO3)C1
10 | 3 | C[C@@H]1CN(S(=O)(=O)c2ccc3c(c2)CCO3)C[C@@H]1C(=O)Nc1ccc2scnc2c1

Test system: not listed separately
Experiment: Lipophilicity, logD of the compound at pH 7.4
Assay type: physicochemical
Conditions: buffer

Row | SMILES | logD
11 | Cc1nn(C)cc1S(=O)(=O)N1CC[C@@H](C(=O)Nc2ccc3scnc3c2)C1 | 1.62
12 | O=C(Nc1ccc2scnc2c1)[C@@H]1CCN(S(=O)(=O)c2ccc3ncsc3c2)C1 | 2.04
13 | O=C(Nc1ccc2scnc2c1)[C@@H]1CCN(S(=O)(=O)c2ccc3c(c2)OCO3)C1 | 2.43
14 | O=C(Nc1ccc2scnc2c1)[C@@H]1CCN(S(=O)(=O)c2ccc3ncccc3c2)C1 | 1.99

Now from value to molecule:

Row | logD | SMILES
15 | 2.45 | [2H]C1([2H])Oc2ccc(S(=O)(=O)N3CC[C@@H](C(=O)Nc4ccc5scnc5c4)C3)cc2C1([2H])[2H]
16 | 3.54 | O=C(Nc1ccc2scnc2c1)[C@@H]1CCN(S(=O)(=O)c2ccc3c(c2)CCC3)C1
17 | 1.85 | Cc1ccc(S(=O)(=O)N2CC[C@@H](C(=O)Nc3ccc4scnc4c3)C2)cn1
18 | 2.88 | C[C@@H]1CN(S(=O)(=O)c2ccc3c(c2)CCO3)C[C@@H]1C(=O)Nc1ccc2scnc2c1

Test system: not listed separately
Experiment: Intrinsic clearance in human
Assay type: ADME
Conditions: not given

Row | SMILES | CLint scaled [mL/min/kg]
19 | O=C(Nc1ccc2scnc2c1)[C@@H]1CCN(S(=O)(=O)c2ccc3ncsc3c2)C1 | 33
20 | O=C(Nc1ccc2scnc2c1)[C@@H]1CCN(S(=O)(=O)c2ccc3c(c2)OCO3)C1 | 30
21 | O=C(Nc1ccc2scnc2c1)[C@@H]1CCN(S(=O)(=O)c2ccc3ncccc3c2)C1 | 42

Further lines, results first:

Row | CLint scaled [mL/min/kg] | SMILES
22 | 50 | [2H]C1([2H])Oc2ccc(S(=O)(=O)N3CC[C@@H](C(=O)Nc4ccc5scnc5c4)C3)cc2C1([2H])[2H]
23 | 61 | O=C(Nc1ccc2scnc2c1)C1CN(S(=O)(=O)c2ccc3c(c2)CCO3)C1
24 | 202 | C[C@@H]1CN(S(=O)(=O)c2ccc3c(c2)CCO3)C[C@@H]1C(=O)Nc1ccc2scnc2c1

Test system: not listed separately
Experiment: Intrinsic clearance in rat
Assay type: ADME
Conditions: not given

Row | SMILES | CLint scaled [mL/min/kg]
25 | O=C(Nc1ccc2scnc2c1)[C@@H]1CCN(S(=O)(=O)c2ccc3ncsc3c2)C1 | 51
26 | O=C(Nc1ccc2scnc2c1)[C@@H]1CCN(S(=O)(=O)c2ccc3c(c2)OCO3)C1 | 267
27 | O=C(Nc1ccc2scnc2c1)[C@@H]1CCN(S(=O)(=O)c2ccc3ncccc3c2)C1 | 191

The next lines start with the values.

Row | CLint scaled [mL/min/kg] | SMILES
28 | 168 | [2H]C1([2H])Oc2ccc(S(=O)(=O)N3CC[C@@H](C(=O)Nc4ccc5scnc5c4)C3)cc2C1([2H])[2H]
29 | 301 | O=C(Nc1ccc2scnc2c1)C1CN(S(=O)(=O)c2ccc3c(c2)CCO3)C1
30 | 769 | C[C@@H]1CN(S(=O)(=O)c2ccc3c(c2)CCO3)C[C@@H]1C(=O)Nc1ccc2scnc2c1

Target: T3, Muscarinic acetylcholine receptor M5 (Rattus norvegicus, UniProt P08911)
T3 sequence (P08911 whole entry): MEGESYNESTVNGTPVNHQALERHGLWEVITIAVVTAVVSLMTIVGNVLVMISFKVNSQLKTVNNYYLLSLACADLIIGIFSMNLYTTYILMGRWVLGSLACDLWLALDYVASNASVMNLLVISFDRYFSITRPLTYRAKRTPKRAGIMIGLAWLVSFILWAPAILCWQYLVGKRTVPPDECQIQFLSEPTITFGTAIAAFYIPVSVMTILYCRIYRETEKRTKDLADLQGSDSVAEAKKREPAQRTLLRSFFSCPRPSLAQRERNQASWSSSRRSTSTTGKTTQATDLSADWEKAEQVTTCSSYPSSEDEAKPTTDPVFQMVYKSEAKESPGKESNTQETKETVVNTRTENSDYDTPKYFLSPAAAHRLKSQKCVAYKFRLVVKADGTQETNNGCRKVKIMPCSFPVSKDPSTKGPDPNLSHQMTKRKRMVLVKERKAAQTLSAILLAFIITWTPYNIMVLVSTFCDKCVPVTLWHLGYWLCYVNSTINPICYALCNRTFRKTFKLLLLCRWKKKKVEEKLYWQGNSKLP
Experiment: Antagonist activity at rat muscarinic M5 receptor expressed in CHO cells in the presence of acetylcholine by calcium mobilisation assay
Assay type: cell-based
Conditions: not given

Row | IC50 [nM] | SMILES
31 | 550 | O=C(Nc1ccc2scnc2c1)[C@@H]1CCN(S(=O)(=O)c2ccc3ncsc3c2)C1

Target: T4, Muscarinic acetylcholine receptor M5 (Rattus norvegicus) (UniProt P08911)
T4 sequence (whole entry): T3 sequence (P08911 whole entry)
Experiment: Antagonist activity at rat muscarinic M5 receptor expressed in CHO cells assessed as minimal acetylcholine response by calcium mobilisation assay relative to control
Assay type: cell-based
Set-up: scale not given: the % may be the effect or the level left
Conditions: filed as antagonist

Row | Activity [%] | SMILES
32 | 4 | O=C(Nc1ccc2scnc2c1)[C@@H]1CCN(S(=O)(=O)c2ccc3ncsc3c2)C1

Test system: not listed separately
Experiment: Unbound fraction in rat plasma
Assay type: ADME, cell-free
Conditions: not given

Row | Fu | SMILES
33 | 0.01 | O=C(Nc1ccc2scnc2c1)[C@@H]1CCN(S(=O)(=O)c2ccc3ncsc3c2)C1

Test system: not listed separately
Experiment: Unbound fraction in human plasma
Assay type: ADME, cell-free
Conditions: not given

Row | Fu | SMILES
34 | 0.12 | O=C(Nc1ccc2scnc2c1)[C@@H]1CCN(S(=O)(=O)c2ccc3ncsc3c2)C1

Test system: not listed separately
Experiment: Unbound fraction in rat brain
Assay type: ADME, tissue-based
Conditions: not given

Row | fraction unbound | SMILES
35 | 0.08 | O=C(Nc1ccc2scnc2c1)[C@@H]1CCN(S(=O)(=O)c2ccc3ncsc3c2)C1

Target: T4, Muscarinic acetylcholine receptor M5 (Rattus norvegicus)
Experiment: Antagonist activity at rat muscarinic M5 receptor assessed as minimal acetylcholine response relative to control
Set-up: scale not given: the % may be the effect or the level left
Conditions: filed as antagonist

Row | Activity [%] | SMILES
36 | 3 | O=C(Nc1ccc2scnc2c1)C1CCN(S(=O)(=O)c2ccc3c(c2)CCO3)CC1
